Our source for the melting point values is a melting point compilation (Tetko et al.; mined from patent text by program, amines drawn as free bases though some values may be those of a salt).

By melting point is commonly meant the temperature of the solid-liquid transition.

In turn, `CC(=O)NCC1CN(c2ccc(N3CCC(C4NN=C(N)S4)CC3)c(F)c2)C(=O)O1` (stereo not drawn) had a melting point of 168 to 169 °C. Turning to `C=C(C)C(=O)NCC(=O)O`, the melting point was 104 °C.

As to `Cc1sc(C)c2c(=O)n3cc(C#N)ccc3nc12`, the melting point is 242 to 244 °C.

With `CCOC(=O)Cc1ccc2c(c1)C(O)C(NC(=O)OC)CC2` (stereo not drawn), the melting point lay in the range of 99 to 100 °C. For `Cn1nc(-c2ccc(Cl)cc2)c2ccccc2c1=O`, the melting point was in the range of 151 to 152 °C. Molecule `CS(=O)c1ccc2c3c(cccc13)C(=O)N2` (stereo not drawn) had a melting point of 178 to 185 °C. As for `CCC(CC)c1ccc(Cl)c2nc3n(c12)CCCCN3c1ccc(N(C)C)cc1C`, the melting point fell in the range of 174 to 175 °C.

The molecule `Cc1cccc(N=NC2=NCCS2)c1C` gave a melting point of 74 to 79 °C. In turn, `Cc1ccc(S(=O)(=O)OCC2Cc3cccc([N+](=O)[O-])c3O2)cc1` (stereo not drawn) showed a melting point of 129 to 131 °C. The figure for `CC1(C)CC(=O)c2c(nc(Cc3ccc(Cl)cc3)c3[nH]c4ccccc4c23)C1` is 205 to 207 °C; for `NS(=O)(=O)c1cc2[nH]c(CO)nc2cc1Cl` it is 247 to 250 °C; for `O=C(c1cccc(O)c1)c1sc2cc(O)ccc2c1-c1ccccc1` it is 202 °C. The molecule `Cc1cc([N+](=O)[O-])c(C)nc1O` gave a melting point of 263 °C.

Molecule `CC(C)n1nc(-c2sc(C(=O)NC3CC3)nc2-c2cccc(F)c2)ccc1=O` displayed a melting point of 146 to 147 °C.

Regarding `OC1CC(c2ccccc2)C(c2ccccc2)(c2ccc(OCCN3CCOCC3)cc2)O1` (stereo not drawn), the melting point lay in the range of 150 to 153 °C.

`Cn1c(CC(=O)O)ccc1C(=O)c1ccc(N)cc1` yielded a melting point of 173 to 175 °C. Regarding `O=C(NCCCCn1cncn1)c1ccco1`, the melting point lay in the range of 78 to 79 °C.

In turn, `Cc1cc(C)c(S(=O)(=O)NCC(O)(Cn2cncn2)c2ccc(Cl)cc2Cl)c(C)c1` (stereo not drawn) yielded a melting point of 171 to 172 °C. The molecule `COC(=O)C(=CN(C)C)N(C)c1cccc(-c2ccc(Cl)cc2)n1` returned a melting point of 101 °C. Consider `CCOC(=O)C1=C(C)NC(CN2C(=O)c3ccccc3C2=O)=C(C(=O)OCC)C1c1ccccc1Cl` (stereo not drawn), for which the melting point stood at 166 °C. `O=C(Nc1ccc(C(F)(F)F)cc1)c1ccc(-c2nn(Cc3ccccc3)c3ccccc23)o1` came in with a melting point of 205 to 206 °C. The molecule `CC(C)(C)OC(=O)NC1CCCCCC=CC2CC2(C(=O)NS(=O)(=O)C2CC2)NC(=O)C2CC(OC(=O)c3ccc4nccnc4c3)CN2C1=O` (stereo not drawn) gave a melting point of 158 to 160 °C. The figure for `Nc1nc(N)c(CCCCCc2ccccc2)c(CCCCc2ccccc2)n1` is 75 to 78 °C.

Molecule `COc1cc2c(cc1OC)CN(CCCCNC(=O)c1cc(C)ccc1OCCOCCF)CC2` gave a melting point of 89.2 to 89.5 °C.

`CC(C)(C)C1CCc2nc(N)nc(N)c2C1` (stereo not drawn) showed a melting point of over 250 °C. Molecule `CS(=O)(=O)c1ccc([C@@H](CC2CCCC2)C(=O)Nc2cnc(C(CO)CO)cn2)cc1Cl` yielded a melting point of 110 to 120 °C. In the case of `CCOC(=O)c1c(Cl)nc(CC)n1Cc1ccc2oc(-c3ccccc3N)c(Br)c2c1`, the melting point is 53 to 56 °C. As to `CCOCc1nc2c(N)nc3cc(-c4cccnc4)ccc3c2n1CC1CCCCN1S(C)(=O)=O` (stereo not drawn), the melting point is 152 to 154 °C.

`CC(C(=O)O)c1ccc2c(c1)oc1ccc(Cl)cc12` (single isomer, unassigned; (+)): the melting point was in the range of 155 to 157 °C. Regarding `CCOc1ccc2[nH]c(=O)n(CCN(C(C)C)C(C)C)c2c1`, the melting point was 89 °C. Molecule `CN1CCN(Cc2ccc3nc(-c4ccc(Cl)c(C#Cc5cnc6cccnn56)c4)[nH]c3c2)CC1` gave a melting point of 156 to 157 °C. In turn, `CC(CO)Oc1cc(Oc2ccc(C(=O)N3CCC3)cc2F)cc(C(=O)O)c1` (stereo not drawn) came in with a melting point of 133 °C. As to `CCN(CC)CCC(=O)NC1(c2ccccc2Cl)C(=O)N(S(=O)(=O)c2ccc3c(c2)CCN3C(=O)N(CC)CC)c2ccc(Cl)cc21` (stereo not drawn), the melting point was in the range of 130 to 133 °C. In turn, `CC(C)=C1CCCP1(=O)c1ccccc1` (stereo not drawn) yielded a melting point of 143 to 146 °C.

For `CCn1c(COCc2ccccc2)nc(C(C)C)c1Sc1cccc(Cl)c1`, the melting point lay within 99 to 100 °C. Molecule `CC(=O)c1ccc(N(C)C)c(S(N)(=O)=O)c1` came in with a melting point of 184 to 185 °C. With `OC(Cc1ccccn1)(c1ccccc1)c1ccccc1`, the melting point was in the range of 147 to 151 °C. On to `COC1=CC23CCN(C)C(Cc4ccc(OC)c(O)c42)C3=CC1C` (stereo not drawn), for which the melting point was 97 to 100 °C. `O=C(NC1CCOc2cc(C(=O)O)ccc21)OCc1ccccc1` (stereo not drawn) returned a melting point of 227 to 228 °C. Molecule `COc1ccc(CN2CCNCC2)cc1` displayed a melting point of 99 to 101 °C.

As for `FC(F)(F)C(F)(F)c1nc(-c2ccc(OCCCn3ccnc3)cc2)no1`, the melting point fell in the range of 60.5 to 61.5 °C.

In the case of `CC(=O)SCC(C(=O)O)C(F)(F)F` (stereo not drawn), the melting point lay in the range of 28 to 30 °C. The molecule `CCCCOc1cc(CCC(=O)O)ccc1CCCc1ccc(OS(=O)(=O)CC)c(OC)c1` displayed a melting point of 64 °C. With `CCCc1cc2ccccn2c1C(=O)c1ccc(O)c(Cl)c1`, the melting point was determined as 165 °C. The figure for `COc1ccc(-c2cc(N3CCN(C(=O)c4cc(S(N)(=O)=O)c(Cl)cc4Cl)CC3)nc(C)n2)cc1OC` is 150 to 160 °C.

With `COc1ccc(NC(=N)c2ccc(SC)cc2)cc1`, the melting point lay within 166 to 168 °C. The figure for `Nc1nc2ccc(S(=O)(=O)n3c(CCCC(=O)O)cc4nc(Cl)ccc43)cc2s1` is over 250 °C; for `Clc1ccc2oc(CBr)cc2c1` it is 70 °C. On to `CCCCOC(=O)n1c2ccccc2c2nc3ccccc3cc21`, for which the melting point was 168 °C. The molecule `CCCCC[C@@H](CNC(=O)Nc1c(OCC)ccc2c1CCC2)c1cccc2c1OCO2` showed a melting point of 108 to 109 °C. `Cn1nc(CS(C)(=O)=O)nc1NCCCOc1ccc(CN2CCCCC2)cc1`: the melting point fell in the range of 131 to 134 °C. `CCCCNS(=O)(=O)CC(O)C(O)C(CC1CCCCC1)NC(=O)[C@H](CC(C)C)NC(=O)C(Cc1ccccc1)CS(=O)(=O)C(C)(C)C` (stereo partly drawn) yielded a melting point of 87 to 101 °C.

As for `CC(C)OC(=O)c1cc(-n2c(=O)c3c(n(C)c2=O)CCS3)c(F)cc1Cl`, the melting point was in the range of 156 to 158 °C.

`CC(C)(CCl)C(=O)N(O)Cc1ccc(Cl)cc1Cl` displayed a melting point of 103 to 106 °C. Molecule `O=C1c2ccccc2S(=O)(=O)N1C1CCN(Cc2c[nH]c3ccccc23)CC1` showed a melting point of 214 to 215 °C. Regarding `Cc1ccc2c3c(ccc2n1)OC[C@H](CNC[C@H]1CCc2c(c4cc(F)ccc4n2C)C1)O3`, the melting point was 127 to 129 °C.

Take `O=S(=O)(NCCc1ccc(CN2CCCCC2)cc1)c1ccc(Br)cc1`: the melting point lay in the range of 109 to 110 °C.

With `CNC(=S)N1CCSC1c1ccccc1OCCN1CC=C(c2cccc(F)c2)CC1` (stereo not drawn), the melting point fell in the range of 147 to 148 °C. Turning to `CC(=O)OCc1ccc(OCC(OC(C)=O)c2cc3cc(C(C)C)ccc3o2)cc1` (stereo not drawn), the melting point was in the range of 74 to 76 °C. In turn, `CCCCNC(=O)NS(=O)(=O)c1c(C(=O)OCC)c(Cl)nn1C` gave a melting point of 109 to 111 °C. The figure for `Cc1cccc(C(=O)CSC(=S)Nc2ccc(Cl)cn2)c1` is 126 °C; for `COc1cccc2c1nc(C1CC1)n2Cc1c(F)cccc1F` it is 136 to 139 °C. The figure for `O=C1Nc2ccccc2C1C1CCN(CC(O)C2COc3ccccc3O2)CC1` (stereo not drawn) is 115 to 120 °C.

As for `N#Cc1ccccc1OCCCC(=O)O`, the melting point lay within 127 to 128 °C. Molecule `C=CCc1cccc2c(=O)cc(-c3c(F)cccc3F)oc12` registered a melting point of 84 to 86 °C. In turn, `CCOC(=O)c1c(C(F)(F)F)nc(C(F)F)c(C(=O)OC)c1C1CO1` (stereo not drawn) showed a melting point of 57.5 to 59 °C.

With `OC1C(COCC(F)(F)F)OC(n2cnc3c(NC4CCCC4)ncnc32)C1O` (stereo not drawn), the melting point was 74 to 76 °C. The molecule `CCCCCCCSc1ccc(-c2ccc(C#N)cc2)cc1` registered a melting point of 64.4 °C.

Molecule `O=c1c(-c2ccccc2Cl)cc2cnc(NC3C4CN(Cc5ccccc5)CC43)nc2n1C1CCNC1` (stereo not drawn) returned a melting point of 203 to 206 °C. In turn, `COc1cc2c(c3c1OC(C)(C)C3)C(c1ccc(=O)n(C)c1)=NC(C)(C)C2` registered a melting point of 158 to 159 °C.

The molecule `CCOP(=O)(CCC1(C)NC(=O)NC1=O)OCC` (stereo not drawn) registered a melting point of 100 to 103 °C. The molecule `CC(=O)c1ccc(C(=O)OC(C)(C)C)cc1` displayed a melting point of 57.5 to 58.8 °C. As to `COC(=O)C1CC2=C(CO1)C(=O)C=CC2=O` (stereo not drawn), the melting point was 55 to 58 °C. Molecule `CCCc1ccc(C(=O)Nc2ccc3sc(C)nc3c2Cl)cc1` had a melting point of 184 °C. `CCS(=O)(=O)c1cc(C(=O)NCC(Cl)CCCCl)c(OC)cc1N` (stereo not drawn) showed a melting point of 109 °C. `C[C@@H]1CN(c2c(C=O)cc(Br)c(F)c2F)C[C@H](C)O1` showed a melting point of 88.1 to 92 °C. The figure for `COc1cc(N)c(Cl)cc1C(=O)NCC1CCN(CCCCCNC(=O)c2nn(C)c3ccccc23)CC1` is 74 to 77 °C. Take `Cc1ccc(S(=O)(=O)N2Cc3c(C)sc(C)c3C2)cc1`: the melting point lay in the range of 163 to 164 °C. The figure for `COC(Cn1cncn1)(c1ccc(F)cc1F)C(F)(F)SCCO` (stereo not drawn) is 76 to 79 °C; for `COC(=O)CC(NC1CC1)=C(C(=O)OC)C(=O)C(F)(F)F` it is 51.5 to 52.5 °C; for `CCC1Cc2c(nc3ccc(F)cc3c2C(=O)O)-c2ccc(-c3ccccc3F)cc21` (stereo not drawn) it is 236 to 237 °C.

`CN(C[C@H]1CC[C@H](C#CCO)CC1)C(=O)OC(C)(C)C` showed a melting point of 97 to 99 °C. In the case of `CC(C)NC(=O)c1n[nH]cc1NC(=O)c1ccccn1`, the melting point fell in the range of 254 to 255 °C. `COc1ccc2[nH]c3c(c2c1)C(C(=O)OCc1ccccc1)CCC3` (stereo not drawn) returned a melting point of 81 to 83 °C. Turning to `CCOC(=O)c1cn(-c2cc(OC)c(F)cc2F)c2c(C)c([N+](=O)[O-])c(F)cc2c1=O`, the melting point fell in the range of 248 to 250 °C. Turning to `Cc1nc(=O)[nH]c2c(-c3ccccc3)[nH]c(C)c12`, the melting point was 290 to 294 °C. The figure for `COc1ccc(C2=NN(C3CCN(C(=O)c4ccccc4)CC3)C(=O)CC2)cc1OC` is 152 to 154 °C; for `O=C(O)c1ccc(NCCCCCCCCCCCOc2ccccc2)cc1` it is 117 to 119 °C.
